# Legend:
# [1] = tested on: Staphylococcus epidermidis; assay: Bactericidal activity against methicillin-resistant Staphylococcus epidermidis isolate 454/11 after 24 hrs; assay type: functional; settings: isolate 454/11, 24 h, read-out: MBC99.9
# [2] = tested on: Staphylococcus epidermidis; assay: Antimicrobial activity against methicillin-resistant Staphylococcus epidermidis isolate 458/11 after 18 hrs by twofold serial broth dilution method; assay type: functional; settings: isolate 458/11, 18 h
# [3] = tested on: Staphylococcus epidermidis; assay: Bactericidal activity against methicillin-resistant Staphylococcus epidermidis isolate 424/10 after 24 hrs; assay type: functional; settings: isolate 424/10, 24 h, read-out: MBC99.9
# Staphylococcus aureus [4] = assay: Antimicrobial activity against Staphylococcus aureus NCTC 4163 after 18 hrs by twofold serial broth dilution method; assay type: functional; settings: NCTC 4163, 18 h
# Staphylococcus aureus [5] = assay: Bactericidal activity against Staphylococcus aureus ATCC 6538 after 24 hrs; assay type: functional; settings: ATCC 6538, 24 h, read-out: MBC99.9
# [6] = tested on: Staphylococcus epidermidis; assay: Bactericidal activity against methicillin-resistant Staphylococcus epidermidis isolate 460/11 after 24 hrs; assay type: functional; settings: isolate 460/11, 24 h, read-out: MBC99.9
# [7] = tested on: Staphylococcus epidermidis; assay: Antimicrobial activity against methicillin-resistant Staphylococcus epidermidis isolate 459/11 after 18 hrs by twofold serial broth dilution method; assay type: functional; settings: isolate 459/11, 18 h
# Pseudomonas aeruginosa [8] = assay: Antimicrobial activity against Pseudomonas aeruginosa NCTC 6749 after 18 hrs by twofold serial broth dilution method; assay type: functional; settings: NCTC 6749, 18 h
# [9] = tested on: Staphylococcus epidermidis; assay: Antimicrobial activity against methicillin-resistant Staphylococcus epidermidis isolate 424/10 after 18 hrs by twofold serial broth dilution method; assay type: functional; settings: isolate 424/10, 18 h
# Bacillus subtilis [10] = assay: Genotoxicity in rec-negative Bacillus subtilis M45 at 2 ug/9 mm disc after 24 hrs by disc diffusion method; assay type: toxicity, organism-based
# [11] = tested on: Staphylococcus epidermidis; assay: Antimicrobial activity against Staphylococcus epidermidis ATCC 12228 after 18 hrs by twofold serial broth dilution method; assay type: functional; settings: ATCC 12228, 18 h
# Pseudomonas aeruginosa [12] = assay: Antimicrobial activity against Pseudomonas aeruginosa ATCC 27853 after 18 hrs by twofold serial broth dilution method; assay type: functional; settings: ATCC 27853, 18 h
# [13] = tested on: Staphylococcus epidermidis; assay: Bactericidal activity against methicillin-resistant Staphylococcus epidermidis isolate 470/11 after 24 hrs; assay type: functional; settings: isolate 470/11, 24 h, read-out: MBC99.9
# Escherichia coli [14] = assay: Antimicrobial activity against Escherichia coli NCTC 8196 after 18 hrs by twofold serial broth dilution method; assay type: functional; settings: NCTC 8196, 18 h
# [15] = tested on: Staphylococcus epidermidis; assay: Bactericidal activity against methicillin-resistant Staphylococcus epidermidis isolate 469/11 after 24 hrs; assay type: functional; settings: isolate 469/11, 24 h, read-out: MBC99.9
# [16] = tested on: Staphylococcus epidermidis; assay: Antimicrobial activity against methicillin-resistant Staphylococcus epidermidis isolate 409/10 after 18 hrs by twofold serial broth dilution method; assay type: functional; settings: isolate 409/10, 18 h
# Pseudomonas aeruginosa [17] = assay: Bactericidal activity against Pseudomonas aeruginosa ATCC 27853 after 24 hrs; assay type: functional; settings: ATCC 27853, 24 h, read-out: MBC99.9
# [18] = tested on: Staphylococcus epidermidis; assay: Bactericidal activity against methicillin-resistant Staphylococcus epidermidis isolate 461/11 after 24 hrs; assay type: functional; settings: isolate 461/11, 24 h, read-out: MBC99.9
# Bacillus anthracis = assay: Antimicrobial activity against Bacillus anthracis 34F2 after 18 hrs by twofold serial broth dilution method; assay type: functional; settings: 34F2, 18 h
# Escherichia coli [19] = assay: Bactericidal activity against Escherichia coli ATCC 10538 after 24 hrs; assay type: functional; settings: ATCC 10538, 24 h, read-out: MBC99.9
# [20] = tested on: Staphylococcus epidermidis; assay: Antimicrobial activity against methicillin-resistant Staphylococcus epidermidis isolate 461/11 after 18 hrs by twofold serial broth dilution method; assay type: functional; settings: isolate 461/11, 18 h
# [21] = tested on: Staphylococcus epidermidis; assay: Bactericidal activity against methicillin-resistant Staphylococcus epidermidis isolate 457/11 after 24 hrs; assay type: functional; settings: isolate 457/11, 24 h, read-out: MBC99.9
# [22] = tested on: Staphylococcus epidermidis; assay: Bactericidal activity against methicillin-resistant Staphylococcus epidermidis isolate 407/10 after 24 hrs; assay type: functional; settings: isolate 407/10, 24 h, read-out: MBC99.9
# [23] = tested on: Staphylococcus epidermidis; assay: Antimicrobial activity against methicillin-resistant Staphylococcus epidermidis isolate 404/10 after 18 hrs by twofold serial broth dilution method; assay type: functional; settings: isolate 404/10, 18 h
# Bacillus subtilis [24] = assay: Genotoxicity in rec-positive Bacillus subtilis H17 at 2 ug/9 mm disc after 24 hrs by disc diffusion method; assay type: toxicity, organism-based
# Escherichia coli [25] = assay: Antimicrobial activity against Escherichia coli ATCC 25922 after 18 hrs by twofold serial broth dilution method; assay type: functional; settings: ATCC 25922, 18 h
# Pseudomonas aeruginosa [26] = assay: Bactericidal activity against Pseudomonas aeruginosa NCTC 6749 after 24 hrs; assay type: functional; settings: NCTC 6749, 24 h, read-out: MBC99.9
# Pseudomonas aeruginosa [27] = assay: Bactericidal activity against Pseudomonas aeruginosa ATCC 15442 after 24 hrs; assay type: functional; settings: ATCC 15442, 24 h, read-out: MBC99.9
# Escherichia coli [28] = assay: Bactericidal activity against Escherichia coli NCTC 8196 after 24 hrs; assay type: functional; settings: NCTC 8196, 24 h, read-out: MBC99.9
# [29] = tested on: Staphylococcus epidermidis; assay: Bactericidal activity against methicillin-resistant Staphylococcus epidermidis isolate 409/10 after 24 hrs; assay type: functional; settings: isolate 409/10, 24 h, read-out: MBC99.9
# [30] = tested on: Staphylococcus epidermidis; assay: Bactericidal activity against methicillin-resistant Staphylococcus epidermidis isolate 405/10 after 24 hrs; assay type: functional; settings: isolate 405/10, 24 h, read-out: MBC99.9
# [31] = tested on: Staphylococcus epidermidis; assay: Antimicrobial activity against methicillin-resistant Staphylococcus epidermidis isolate 469/11 after 18 hrs by twofold serial broth dilution method; assay type: functional; settings: isolate 469/11, 18 h
# [32] = tested on: Staphylococcus epidermidis; assay: Antimicrobial activity against methicillin-resistant Staphylococcus epidermidis isolate 454/11 after 18 hrs by twofold serial broth dilution method; assay type: functional; settings: isolate 454/11, 18 h
# [33] = tested on: Staphylococcus epidermidis; assay: Antimicrobial activity against methicillin-resistant Staphylococcus epidermidis isolate 470/11 after 18 hrs by twofold serial broth dilution method; assay type: functional; settings: isolate 470/11, 18 h
# [34] = tested on: Staphylococcus epidermidis; assay: Antimicrobial activity against methicillin-resistant Staphylococcus epidermidis isolate 407/10 after 18 hrs by twofold serial broth dilution method; assay type: functional; settings: isolate 407/10, 18 h
# Staphylococcus aureus [35] = assay: Antimicrobial activity against Staphylococcus aureus ATCC 25923 after 18 hrs by twofold serial broth dilution method; assay type: functional; settings: ATCC 25923, 18 h
# Staphylococcus aureus [36] = assay: Bactericidal activity against Staphylococcus aureus NCTC 4163 after 24 hrs; assay type: functional; settings: NCTC 4163, 24 h, read-out: MBC99.9
# [37] = tested on: Staphylococcus epidermidis; assay: Bactericidal activity against Staphylococcus epidermidis ATCC 35984 after 24 hrs; assay type: functional; settings: ATCC 35984, 24 h, read-out: MBC99.9
# Staphylococcus aureus [38] = assay: Bactericidal activity against Staphylococcus aureus ATCC 25923 after 24 hrs; assay type: functional; settings: ATCC 25923, 24 h, read-out: MBC99.9
# Staphylococcus aureus [39] = assay: Antimicrobial activity against Staphylococcus aureus […] after 18 hrs by twofold serial broth dilution method; assay type: functional
# [40] = tested on: Staphylococcus epidermidis; assay: Bactericidal activity against methicillin-resistant Staphylococcus epidermidis isolate 422/10 after 24 hrs; assay type: functional; settings: isolate 422/10, 24 h, read-out: MBC99.9
# [41] = tested on: Staphylococcus epidermidis; assay: Antimicrobial activity against methicillin-resistant Staphylococcus epidermidis isolate 422/10 after 18 hrs by twofold serial broth dilution method; assay type: functional; settings: isolate 422/10, 18 h
# Staphylococcus aureus [42] = assay: Bactericidal activity against Staphylococcus aureus […] after 24 hrs; assay type: functional; settings: read-out: MBC99.9
smiles,measurement,setting,value
CC[C@@H](C(=O)[C@@H](C)[C@@H](O)[C@H](C)[C@@H]1O[C@@H]([C@@H](CC)C(=O)N2CCNCC2)CC[C@@H]1C)[C@H]1O[C@]2(C=C[C@@H](O)[C@]3(CC[C@@](C)([C@H]4CC[C@](O)(CC)[C@H](C)O4)O3)O2)[C@H](C)C[C@@H]1C,MBC,[1],> 256 µg/mL
same,MIC,[2],128 µg/mL
same,MBC,[3],> 256 µg/mL
same,MIC,Staphylococcus aureus [4],128 µg/mL
same,MBC,Staphylococcus aureus [5],> 256 µg/mL
same,MBC,[6],> 256 µg/mL
same,MIC,[7],64 µg/mL
same,MIC,Pseudomonas aeruginosa [8],> 256 µg/mL
same,MIC,[9],64 µg/mL
same,diameter of the inhibition zone (DIZ),Bacillus subtilis [10],14 mm
same,MIC,[11],128 µg/mL
same,MIC,Pseudomonas aeruginosa [12],> 256 µg/mL
same,MBC,[13],> 256 µg/mL
same,MIC,Escherichia coli [14],> 256 µg/mL
same,MBC,[15],> 256 µg/mL
same,MIC,[16],128 µg/mL
same,MBC,Pseudomonas aeruginosa [17],> 256 µg/mL
same,MBC,[18],> 256 µg/mL
same,MIC,Bacillus anthracis,64 µg/mL
same,MBC,Escherichia coli [19],> 256 µg/mL
same,MIC,[20],256 µg/mL
same,MBC,[21],> 256 µg/mL
same,MBC,[22],> 256 µg/mL
same,MIC,[23],64 µg/mL
same,diameter of the inhibition zone (DIZ),Bacillus subtilis [24],14 mm
same,MIC,Escherichia coli [25],> 256 µg/mL
same,MBC,Pseudomonas aeruginosa [26],> 256 µg/mL
same,MBC,Pseudomonas aeruginosa [27],> 256 µg/mL
same,MBC,Escherichia coli [28],> 256 µg/mL
same,MBC,[29],> 256 µg/mL
same,MBC,[30],> 256 µg/mL
same,MIC,[31],128 µg/mL
same,MIC,[32],128 µg/mL
same,MIC,[33],256 µg/mL
same,MIC,[34],128 µg/mL
same,MIC,Staphylococcus aureus [35],128 µg/mL
same,MBC,Staphylococcus aureus [36],> 256 µg/mL
same,MBC,[37],> 256 µg/mL
same,MBC,Staphylococcus aureus [38],> 256 µg/mL
same,MIC,Staphylococcus aureus [39],128 µg/mL
same,MBC,[40],> 256 µg/mL
same,MIC,[41],128 µg/mL
same,MBC,Staphylococcus aureus [42],> 256 µg/mL
CCCCCCCCN(CCCCCCCC)C(=O)[C@H](CC)[C@H]1CC[C@H](C)[C@H]([C@@H](C)[C@H](O)[C@H](C)C(=O)[C@H](CC)[C@H]2O[C@]3(C=C[C@@H](O)[C@]4(CC[C@@](C)([C@H]5CC[C@](O)(CC)[C@H](C)O5)O4)O3)[C@H](C)C[C@@H]2C)O1,MBC,[1],> 256 µg/mL
same,MIC,[2],256 µg/mL
same,MBC,[3],> 256 µg/mL
same,MIC,Staphylococcus aureus [4],256 µg/mL
same,MBC,Staphylococcus aureus [5],> 256 µg/mL
same,MBC,[6],> 256 µg/mL
same,MIC,[7],256 µg/mL
same,MIC,Pseudomonas aeruginosa [8],> 256 µg/mL
same,MIC,[9],> 256 µg/mL
same,MIC,[11],128 µg/mL
same,MIC,Pseudomonas aeruginosa [12],> 256 µg/mL
same,MBC,[13],> 256 µg/mL
same,MIC,Escherichia coli [14],> 256 µg/mL
same,MBC,[15],> 256 µg/mL
same,MIC,[16],> 256 µg/mL
same,MBC,Pseudomonas aeruginosa [17],> 256 µg/mL
same,MBC,[18],> 256 µg/mL
same,MIC,Bacillus anthracis,64 µg/mL
same,MBC,Escherichia coli [19],> 256 µg/mL
same,MIC,[20],> 256 µg/mL
same,MBC,[21],> 256 µg/mL
same,MBC,[22],> 256 µg/mL
same,MIC,[23],256 µg/mL
same,MIC,Escherichia coli [25],> 256 µg/mL
same,MBC,Pseudomonas aeruginosa [26],> 256 µg/mL
same,MBC,Pseudomonas aeruginosa [27],> 256 µg/mL
same,MBC,Escherichia coli [28],> 256 µg/mL
same,MBC,[29],> 256 µg/mL
same,MBC,[30],> 256 µg/mL
same,MIC,[31],256 µg/mL
same,MIC,[32],> 256 µg/mL
same,MIC,[33],256 µg/mL
same,MIC,[34],256 µg/mL
same,MIC,Staphylococcus aureus [35],128 µg/mL
same,MBC,Staphylococcus aureus [36],> 256 µg/mL
same,MBC,[37],> 256 µg/mL
same,MBC,Staphylococcus aureus [38],> 256 µg/mL
same,MIC,Staphylococcus aureus [39],256 µg/mL
same,MBC,[40],> 256 µg/mL
same,MIC,[41],256 µg/mL
same,MBC,Staphylococcus aureus [42],> 256 µg/mL

# Source: ChEMBL document CHEMBL3400015, “Tertiary amides of Salinomycin: A new group of antibacterial agents against Bacillus anthracis and methicillin-resistant Staphylococcus epidermidis” (Bioorg Med Chem Lett, 2015)
